Values after ≈ are worked out from the molar mass of the structure shown.
Experiments:
gynecomastia [1] = conditions: alcoholic solution applied to the skin; cited from earlier work
[2] = cited from earlier work
human androgen receptor = system: human androgen receptor
Excerpt: It is also believed that an androgen-action,rather than an estrogen action, acts to prevent breast enlargement.

LH [3] = assay: 24-hour urinary LH; type: in vivo, human; conditions: after 1 week of treatment; before 13.0±1.3
Procedure: (§1) The patients were given 200 mg DHT-hep in sesame oil intramuscularly. […] Subsequent testing was at 2, 3 and 4 weeks, and then just prior to each dose of DHT-hep. […] In two boys, the dose of DHT-hep was increased to 400 mg. Treatment lasted 16 weeks. The patients were examined before each injection of DHT-hep and at two months and six months after therapy. Patients' unpaired, or when appropriate, paired tests were used to determine significant differences (p less than 0.05). Results were all expressed as mean±Standard Error.

gynecomastia [4] = assay: Treatment of gynecomastia in pubertal boys (breast diameter and area); type: in vivo, human
Procedure: (§2) Four pubertal boys, ages 14-16 years with gynecomastia which had lasted for more than 16 months and who all had breast diameters of more than 4 cm were studied. Their breast diameters ranged from 4.0 to 7.3 cm and breast areas from 13.5 to 41.4 cm^2 with mean breast area (±SEM) 24.3±4.1 cm^2.
as §1

[5] = Plasma DHT after intramuscular DHT-hep; type: in vivo, human
Procedure: as §2, §1

Solubility in sesame oil = type: physicochemical; conditions: organic solvent or mixture, 37° C., limit of solubility
Procedure: (This was the limit of solubility of DHT-hep in sesame oil at 37° C. The warm sesame oil mixture was filtered in a laminar flow hood through a 0.20 micron filter into sterile injection vials. The vials were sealed, tested for sterility and pyroqens, and stored at room temperature.

estradiol = assay: Plasma estradiol after DHT-hep; type: in vivo, human; conditions: for mean estradiol level: before 23.8±3.2
Procedure: as §2, §1

testosterone = assay: Plasma testosterone after DHT-hep; type: in vivo, human; conditions: for mean plasma testosterone: before 283.8±87.5
Procedure: as §2, §1

human estrogen receptor = assay: Binding to estrogen receptor; conditions: heptanoate ester
FSH [6] = assay: Plasma FSH after DHT-hep; type: in vivo, human; conditions: for mean plasma FSH: before 190.5±50.7
Procedure: as §2, §1

male external genitalia = assay: Use of DHT-hep as an androgen (development of male external genitalia); type: in vivo, human
Excerpt: DHT-hep was given to two patients for the purpose of stimulating development of the male external genitalia. One was a person with hypogonadotrophic hypogonadism. […] The second patient was a child in early puberty with qynecomastia.

FSH [7] = assay: 24-hour urinary FSH; type: in vivo, human; conditions: after 1 week of treatment; before 8.4±0.8
Procedure: as §1

LH [8] = assay: Plasma LH after DHT-hep; type: in vivo, human
Procedure: as §2, §1

gonadotropin = conditions: in vivo; cited from earlier work
gynecomastia [9] = conditions: treatment of gynecomastia; cited from earlier work
[10] = another set of tests, 10 adolescent patients
[11] = subject four, 200 mg every 3 wks, 2 mo. post treatment
[12] = subject one, 400 mg every 3 wks, 2 mo. post treatment
[13] = subject three, 200 mg every 2 wks, 2 mo. post treatment
[14] = subject two, 400 mg every 3 wks, 2 mo. post treatment
[15] = injections every two to three weeks
[16] = mean ± SE, two months after therapy
[17] = child in early puberty with gynecomastia, 4 months
[18] = person, 200 mg/month i.m., 6 months

Compound: C[C@]12CCC(=O)C[C@@H]1CC[C@@H]1[C@@H]2CC[C@]2(C)[C@@H](O)CC[C@@H]12 [DHT, dihydrotestosterone]
- plasma DHT levels (systemic absorption) (gynecomastia [1]): elevations in its plasma levels
- oral stability ([2]; oral): destroyed before reaching the circulatory system
- half-life ([2]; parenteral): very short half-life
- binding to human androgen receptor (human androgen receptor): high affinity

Compound: CCCCCCC(=O)O[C@H]1CC[C@H]2[C@@H]3CC[C@H]4CC(=O)CC[C@]4(C)[C@H]3CC[C@]12C [DHT-hep, dihydrotestosterone heptanoate]
- 24-hour urinary LH (LH [3]): 7.4±3 IU/day
- breast size change (gynecomastia [4]; [10]): significant reduction in breast size
- regression of breast tissue (gynecomastia [4]; intramuscular injections, four adolescent boys): regression of breast tissue in all four adolescent boys
- mean breast area (gynecomastia [4]; mean ± SE, four boys, after 16 weeks of treatment, before 24.3±4.1, p less than 0.002): 7.0±1.5 cm^2
- increase in breast size on follow-up (gynecomastia [4]; patient four, followed for nine months): no increase in breast size
- decrease in breast area (gynecomastia [4]; range of four boys, 16 weeks): 66.6 to 77.5%
- regrowth of breast tissue (gynecomastia [4]; six to nine months after therapy was discontinued): no regrowth of breast tissue
- % Decrease in Breast Area (gynecomastia [4]; [11]): 70.1%
- Breast Area (gynecomastia [4]; [11]): 4.0 cm^2
- Breast Diameter (gynecomastia [4]; [11]): 2.3 cm
- % Decrease in Breast Area (gynecomastia [4]; subject four, 200 mg every 3 wks, after 16 wks treatment): 70.1%
- Breast Diameter (gynecomastia [4]; subject four, 200 mg every 3 wks, after 16 wks treatment, before 4.0): 2.3 cm
- Breast Area (gynecomastia [4]; subject four, 200 mg every 3 wks, after 16 wks treatment, before 13.5): 4.0 cm^2
- % Decrease in Breast Area (gynecomastia [4]; [12]): 75.5%
- Breast Area (gynecomastia [4]; [12]): 6.0 cm^2
- Breast Diameter (gynecomastia [4]; [12]): 2.6 cm
- % Decrease in Breast Area (gynecomastia [4]; subject one, 400 mg every 3 wks, after 16 wks treatment): 75.2%
- Breast Diameter (gynecomastia [4]; subject one, 400 mg every 3 wks, after 16 wks treatment, before 5.6): 2.7 cm
- Breast Area (gynecomastia [4]; subject one, 400 mg every 3 wks, after 16 wks treatment, before 24.6): 6.1 cm^2
- % Decrease in Breast Area (gynecomastia [4]; [13]): 77.5%
- Breast Area (gynecomastia [4]; [13]): 4.0 cm^2
- Breast Diameter (gynecomastia [4]; [13]): 2.3 cm
- % Decrease in Breast Area (gynecomastia [4]; subject three, 200 mg every 2 wks, after 16 wks treatment): 77.5%
- Breast Diameter (gynecomastia [4]; subject three, 200 mg every 2 wks, after 16 wks treatment, before 4.8): 2.3 cm
- Breast Area (gynecomastia [4]; subject three, 200 mg every 2 wks, after 16 wks treatment, before 17.7): 4.0 cm^2
- % Decrease in Breast Area (gynecomastia [4]; [14]): 69.9%
- Breast Area (gynecomastia [4]; [14]): 12.6 cm^2
- Breast Diameter (gynecomastia [4]; [14]): 3.3 cm
- % Decrease in Breast Area (gynecomastia [4]; subject two, 400 mg every 3 wks, after 16 wks treatment): 66.6%
- Breast Diameter (gynecomastia [4]; subject two, 400 mg every 3 wks, after 16 wks treatment, before 7.3): 4.2 cm
- Breast Area (gynecomastia [4]; subject two, 400 mg every 3 wks, after 16 wks treatment, before 41.4): 13.9 cm^2
- regrowth of breast tissue (gynecomastia [4]; two and six months after therapy was discontinued): No regrowth of breast tissue occurred in any subject
- DHT levels ([5]; injection, general statement): elevation
- increase in plasma DHT ([5]; one week after injection of 200 mg DHT-hep): 5-8 fold
- solubility (Solubility in sesame oil): 190 mg/mL (≈ 472 mM)
- plasma estradiol change (estradiol; DHT-hep i.m., four boys): statistically significant decreases
- plasma estradiol change (estradiol; [10]): reduction
- Estradiol (estradiol; injection, general statement): suppression
- maintenance of estradiol suppression (estradiol; [15]): maintained
- mean estradiol level (estradiol; mean ± SE, 16 weeks): 12.8 ± 1.6 pg/mL
- plasma estradiol (estradiol; [16]): 18.8 ± 2.5 pg/mL
- mean estradiol level (estradiol; mean ± SE, two weeks): 10.8 ± 0.8 pg/mL
- time of maximal suppression of estradiol (estradiol; post injection, all subjects): two
- Estradiol (estradiol; [11]): 22 pg/mL
- Estradiol (estradiol; subject four, 200 mg every 3 wks, after 16 wks treatment, before 30): < 10 pg/mL
- Estradiol (estradiol; [12]): 12 pg/mL
- Estradiol (estradiol; subject one, 400 mg every 3 wks, after 16 wks treatment, before 16): < 10 pg/mL
- Estradiol (estradiol; [13]): 18 pg/mL
- Estradiol (estradiol; subject three, 200 mg every 2 wks, after 16 wks treatment, before 28): 15 pg/mL
- Estradiol (estradiol; [14]): 23 pg/mL
- Estradiol (estradiol; subject two, 400 mg every 3 wks, after 16 wks treatment, before 21): 16 pg/mL
- residual estradiol levels (estradiol; two of the four boys, LH and testosterone suppressed): significant estradiol levels persisted
- estradiol suppression at 200 mg (estradiol; two subjects, 200 mg dose): not adequately suppressed
- plasma testosterone change (testosterone; DHT-hep i.m., four boys): statistically significant decreases
- plasma testosterone change (testosterone; [10]): reduction
- plasma testosterone (testosterone; [17]): suppressed
- Testosterone (testosterone; injection, general statement): suppression
- maintenance of testosterone suppression (testosterone; [15]): maintained
- mean plasma testosterone (testosterone; mean ± SE, 16 weeks): 33.8 ± 3.2 ng/dL
- plasma testosterone (testosterone; [16]): 214.9 ± 34.8 ng/dL
- mean plasma testosterone (testosterone; mean ± SE, two weeks): 29.5 ± 3.3 ng/dL
- time of rebound of testosterone to pretreatment levels (testosterone; post injection): four
- time of maximal suppression of testosterone (testosterone; post injection, all subjects): two
- Testosterone (testosterone; [11]): 297 ng/dL
- Testosterone (testosterone; subject four, 200 mg every 3 wks, after 16 wks treatment, before 517): 40 ng/dL
- Testosterone (testosterone; [12]): 178 ng/dL
- Testosterone (testosterone; subject one, 400 mg every 3 wks, after 16 wks treatment, before 129): < 25 ng/dL
- Testosterone (testosterone; [13]): 244 ng/dL
- Testosterone (testosterone; subject three, 200 mg every 2 wks, after 16 wks treatment, before 317): 34 ng/dL
- Testosterone (testosterone; [14]): 140 ng/dL
- Testosterone (testosterone; subject two, 400 mg every 3 wks, after 16 wks treatment, before 174): 36 ng/dL
- binding to human estrogen receptor (human estrogen receptor): not binding tightly
- plasma FSH change (FSH [6]; DHT-hep i.m., four boys): statistically significant decreases
- plasma FSH change (FSH [6]; [10]): reduction
- FSH (FSH [6]; injection, general statement): suppression
- mean plasma FSH (FSH [6]; mean ± SE, 16 weeks): 40.3 ± 7.3 ng/mL
- plasma FSH (FSH [6]; [16]): 121.5 ± 17.4 ng/mL
- mean plasma FSH (FSH [6]; mean ± SE, two weeks): 58.8 ± 18.5 ng/mL
- FSH (FSH [6]; [11]): 150 ng/mL
- FSH (FSH [6]; subject four, 200 mg every 3 wks, after 16 wks treatment, before 334): < 27 ng/mL
- FSH (FSH [6]; [12]): 73 ng/mL
- FSH (FSH [6]; subject one, 400 mg every 3 wks, after 16 wks treatment, before 96): 34 ng/mL
- FSH (FSH [6]; [13]): 120 ng/mL
- FSH (FSH [6]; subject three, 200 mg every 2 wks, after 16 wks treatment, before 175): 61 ng/mL
- FSH (FSH [6]; [14]): 143 ng/mL
- FSH (FSH [6]; subject two, 400 mg every 3 wks, after 16 wks treatment, before 157): 39 ng/mL
- penile length change (male external genitalia; [17]): penile length increased significantly
- pubic and auxiliary hair (male external genitalia; [17]): pubic and auxiliary hair increased
- androgenic effects (male external genitalia; general statement): enlargement of the male genitalia, growth of pubic hair, growth of facial hair, and increase in height and weight
- erections and ejaculations (male external genitalia; [18]): erections and ejaculations were reported
- muscle mass (male external genitalia; [18]): significant increase in muscle mass
- pubic hair (male external genitalia; [18]): Pubic hair increased
- penile diameter (male external genitalia; person, hypogonadotrophic hypogonadism, 200 mg/month i.m., 6 months, from 1.5): 2.5 cm
- penile length (male external genitalia; person, hypogonadotrophic hypogonadism, 200 mg/month i.m., 6 months, from 4 cm): 8 cm
- 24-hour urinary FSH (FSH [7]): 2.9±0.1 IU/day
- plasma LH change (LH [8]; [10]): reduction
- plasma LH (LH [8]; [17]): suppressed
- LH (LH [8]; injection, general statement): suppression
- further suppression of plasma LH (LH [8]; plasma LH low before treatment in three patients): not statistically significant
- LH (LH [8]; [11]): 14 ng/mL
- LH (LH [8]; subject four, 200 mg every 3 wks, after 16 wks treatment, before 25): < 11 ng/mL
- LH (LH [8]; [12]): < 11 ng/mL
- LH (LH [8]; subject one, 400 mg every 3 wks, after 16 wks treatment, before less than 11): < 11 ng/mL
- LH (LH [8]; [13]): 27 ng/mL
- LH (LH [8]; subject three, 200 mg every 2 wks, after 16 wks treatment, before less than 11): < 11 ng/mL
- LH (LH [8]; [14]): 19 ng/mL
- LH (LH [8]; subject two, 400 mg every 3 wks, after 16 wks treatment, before 15): < 11 ng/mL

Compound: CCC(=O)O[C@H]1CC[C@H]2[C@@H]3CC[C@H]4CC(=O)CC[C@]4(C)[C@H]3CC[C@]12C [Dihydrotestosterone propionate]
- duration of action (gonadotropin): one-to three
- gonadotropin suppression (gonadotropin): not effective in gonadotropin suppression

Compound: C[C@]12CC[C@H]3[C@@H](CCC4=CC(=O)CC[C@@]43C)[C@@H]1CC[C@@H]2O [testosterone]
- breast size (gynecomastia [9]): increased breast size

— patent US4956357A (priority 1984, dated 1990)
